Target: MAGL (Homo sapiens (Human), UniProt Q99685)
Assay: In vitro competitive activity-based protein profiling (human prefrontal cortex membrane fractions, FP-Rh probe), MAGL band
Conditions: read-out: MAGL IC50 (μM) (human); human prefrontal cortex membrane fractions

Chain of MAGL (Q99685 whole entry): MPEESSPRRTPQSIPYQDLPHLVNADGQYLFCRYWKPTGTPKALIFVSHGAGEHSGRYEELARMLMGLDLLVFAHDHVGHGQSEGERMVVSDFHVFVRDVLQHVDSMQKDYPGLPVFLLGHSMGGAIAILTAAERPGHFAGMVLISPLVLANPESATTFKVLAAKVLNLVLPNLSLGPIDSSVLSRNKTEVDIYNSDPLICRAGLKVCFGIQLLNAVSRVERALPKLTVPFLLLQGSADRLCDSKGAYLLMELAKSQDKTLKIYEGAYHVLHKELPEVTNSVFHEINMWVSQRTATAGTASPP

Structure (SMILES) | IC50
O=C(O)c1nn(C(=O)N2CC3CN(Cc4cc(Cl)cc(C(F)(F)F)c4)CC3C2)cc1Cl (centres unmarked) [Example 357, 4-chloro-1-(5-(3-chloro-5-(trifluoromethyl)-benzyl)-octahydropyrrolo-[3,4-c]pyrrole-2-carbonyl)-1H-pyrazole-3-carboxylic acid] | < 0.1 µM
C[C@@H]1CC[C@@H](C)N1c1cc(C(F)(F)F)ccc1CN1CCN(C(=O)n2ccc(C(=O)O)n2)CC1 [Example 359, 1-(4-(2-((2R,5R)-2,5-dimethylpyrrolidin-1-yl)-4-(trifluoromethyl)-benzyl)piperazine-1-carbonyl)-1H-pyrazole-3-carboxylic acid] | < 0.1 µM
O=C(O)c1nn(C(=O)N2CCN(Cc3ccc(N4CCCC4)cc3C(F)(F)F)CC2)cc1Cl [Example 368, 4-chloro-1-(4-(4-(pyrrolidin-1-yl)-2-(trifluoromethyl)-benzyl)piperazine-1-carbonyl)-1H-pyrazole-3-carboxylic acid] | < 0.1 µM
O=C(O)c1nn(C(=O)N2CCN(Cc3cc(F)cc(Oc4ccc(Cl)cc4)c3)CC2)cc1Cl [Example 378, 4-chloro-1-(4-(3-(4-chlorophenoxy)-5-fluorobenzyl)-piperazine-1-carbonyl)-1H-pyrazole-3-carboxylic acid] | < 0.1 µM
O=C(O)c1ccn(C(=O)N2CCN(Cc3ccc(C(F)(F)F)cc3N3CC4CCC(C3)O4)CC2)n1 [Example 380, 1-(4-(2-(8-oxa-3-azabicyclo[3.2.1]-octan-3-yl)-4-(trifluoromethyl)-benzyl)piperazine-1-carbonyl)-1H-pyrazole-3-carboxylic acid] | < 0.1 µM
CN(Cc1ccc(C(F)(F)F)c(N2CCCC2)c1)C1(C)CCN(C(=O)n2ccc(C(=O)O)n2)CC1 [Example 385, 1-(4-methyl-4-(methyl(3-(pyrrolidin-1-yl)-4-(trifluoromethyl)-benzyl)amino)-piperidine-1-carbonyl)-1H-pyrazole-3-carboxylic acid] | < 0.1 µM
Cc1cn(C(=O)N2CCC(C)(N(C)Cc3ccc(C(F)(F)F)cc3N3CCCC3)CC2)nc1C(=O)O [Example 398] | < 0.1 µM
O=C(O)c1nn(C(=O)N2CCN(Cc3cccc(Oc4cc(C(F)(F)F)ccn4)c3)CC2)cc1Cl [Example 399, 4-chloro-1-(4-(3-((4-(trifluoromethyl)-pyridin-2-yl)oxy)benzyl)piperazine-1-carbonyl)-1H-pyrazole-3-carboxylic acid] | < 0.1 µM
O=C(O)c1nn(C(=O)N2CCN(Cc3cc(F)cc(Oc4ccc(Cl)cc4)c3)CC2)cc1C(F)(F)F [Example 408, 1-(4-(3-(4-chlorophenoxy)-5-fluorobenzyl)-piperazine-1-carbonyl)-4-(trifluoromethyl)-1H-pyrazole-3-carboxylic acid] | < 0.1 µM
O=C(O)c1nn(C(=O)N2CCN(Cc3cccc(Oc4cc(C(F)(F)F)ccn4)c3)CC2)cc1C(F)(F)F [Example 414, 4-(trifluoromethyl)-1-(4-(3-((4-(trifluoromethyl)-pyridin-2-yl)oxy)benzyl)-piperazine-1-carbonyl)-1H-pyrazole-3-carboxylic acid] | < 0.1 µM
O=C(O)c1ccn(C(=O)N2CCC3(CCCN3Cc3ccc(C(F)(F)F)cc3N3CC4CCC(C3)O4)CC2)n1 [Example 416, 1-(1-(2-(8-oxa-3-azabicyclo[3.2.1]-octan-3-yl)-4-(trifluoromethyl)-benzyl)-1,8-diazaspiro[4.5]-decane-8-carbonyl)-1H-pyrazole-3-carboxylic acid] | < 0.1 µM
CNC(=O)c1ccn(C(=O)N2CC3CN(Cc4ccc(Cl)cc4)CC3C2)n1 (centres unmarked) [Example 424, 1-(5-(4-chlorobenzyl)-octahydropyrrolo-[3,4-c]pyrrole-2-carbonyl)-N-methyl-1H-pyrazole-3-carboxamide] | < 0.1 µM
CNC(=O)c1ccn(C(=O)N2CC3CN(Cc4cc(Cl)ccc4Cl)CC3C2)n1 (centres unmarked) [Example 430, 1-(5-(2,5-dichlorobenzyl)-octahydropyrrolo-[3,4-c]pyrrole-2-carbonyl)-N-methyl-1H-pyrazole-3-carboxamide] | < 0.1 µM

The next lines start with the values.

IC50 | Structure (SMILES)
< 0.1 µM | O=C(O)c1ccn(C(=O)N2CCN(Cc3cccc(Oc4cnccc4C(F)(F)F)c3)CC2)n1 [Example 352, 1-(4-(3-((4-(trifluoromethyl)-pyridin-3-yl)oxy)-benzyl)-piperazine-1-carbonyl)-1H-pyrazole-3-carboxylic acid]
< 0.1 µM | O=C(O)c1ccn(C(=O)N2CCN(Cc3cccc(Oc4cccc(C(F)(F)F)n4)c3)CC2)n1 [Example 353, 1-(4-(3-((6-(trifluoromethyl)-pyridin-2-yl)oxy)benzyl)-piperazine-1-carbonyl)-1H-pyrazole-3-carboxylic acid]
< 0.1 µM | O=C(O)c1ccn(C(=O)N2CCN(Cc3cccc(Oc4ccnc(C(F)(F)F)c4)c3)CC2)n1 [Example 355, 1-(4-(3-((2-(trifluoromethyl)-pyridin-4-yl)oxy)benzyl)-piperazine-1-carbonyl)-1H-pyrazole-3-carboxylic acid]
< 0.1 µM | O=C(O)c1ccn(C(=O)N2CCC3(CCN(Cc4cccc(-c5ccccc5)c4Cl)C3)CC2)n1 [Example 358, 1-(2-((2-chloro-[1,1′-biphenyl]-3-yl)methyl)-2,8-diazaspiro[4.5]-decane-8-carbonyl)-1H-pyrazole-3-carboxylic acid]
< 0.1 µM | C[C@H]1CC[C@H](C)N1c1cc(C(F)(F)F)ccc1CN1CCN(C(=O)n2ccc(C(=O)O)n2)CC1 [Example 360, 1-(4-(2-((2S,5S)-2,5-dimethylpyrrolidin-1-yl)-4-(trifluoromethyl)-benzyl)piperazine-1-carbonyl)-1H-pyrazole-3-carboxylic acid]
< 0.1 µM | O=C(O)c1ccn(C(=O)N2CCC3(CCN(Cc4cc(Cl)ccc4OC(F)(F)F)C3)CC2)n1 [Example 371, 1-(2-(5-chloro-2-(trifluoromethoxy)-benzyl)-2,8-diazaspiro[4.5]-decane-8-carbonyl)-1H-pyrazole-3-carboxylic acid]
< 0.1 µM | C[C@H]1CN(Cc2cccc(Oc3cc(C(F)(F)F)ccn3)c2)CCN1C(=O)n1ccc(C(=O)O)n1 [Example 373, (S)-1-(2-methyl-4-(3-((4-(trifluoromethyl)-pyridin-2-yl)oxy)benzyl)-piperazine-1-carbonyl)-1H-pyrazole-3-carboxylic acid]
< 0.1 µM | C[C@@H]1CN(Cc2cccc(Oc3cc(C(F)(F)F)ccn3)c2)CCN1C(=O)n1ccc(C(=O)O)n1 [Example 374, (R)-1-(2-methyl-4-(3-((4-(trifluoromethyl)-pyridin-2-yl)oxy)benzyl)-piperazine-1-carbonyl)-1H-pyrazole-3-carboxylic acid]
< 0.1 µM | CN(Cc1cc(N2CCCC2)cc(C(F)(F)F)c1)C1(C)CCN(C(=O)n2ccc(C(=O)O)n2)CC1 [Example 381, 1-(4-methyl-4-(methyl(3-(pyrrolidin-1-yl)-5-(trifluoromethyl)-benzyl)amino)-piperidine-1-carbonyl)-1H-pyrazole-3-carboxylic acid]
< 0.1 µM | CN(Cc1cc(C(F)(F)F)ccc1N1CCCC1)C1(C)CCN(C(=O)n2ccc(C(=O)O)n2)CC1 [Example 384, 1-(4-methyl-4-(methyl(2-(pyrrolidin-1-yl)-5-(trifluoromethyl)-benzyl)amino)-piperidine-1-carbonyl)-1H-pyrazole-3-carboxylic acid]
< 0.1 µM | O=C(O)c1nn(C(=O)N2CCC3(CCN(Cc4cc(Cl)cc(C(F)(F)F)c4)C3)CC2)cc1Cl [Example 388, 4-chloro-1-(2-(3-chloro-5-(trifluoromethyl)-benzyl)-2,8-diazaspiro-[4.5]decane-8-carbonyl)-1H-pyrazole-3-carboxylic acid]
< 0.1 µM | NC(=O)c1ccn(C(=O)N2CCC3(CCCN3C(=O)c3cc4ccc(C(F)(F)F)cc4s3)CC2)n1 [Example 389, 1-(1-(6-(trifluoromethyl)-benzo-[b]thiophene-2-carbonyl)-1,8-diazaspiro-[4.5]decane-8-carbonyl)-1H-pyrazole-3-carboxamide]
< 0.1 µM | O=C(O)c1ccn(C(=O)N2CCC3(CCN(Cc4cc(N5CCCC5)ccc4C(F)(F)F)C3)CC2)n1 [Example 391, 1-(2-(5-(pyrrolidin-1-yl)-2-(trifluoromethyl)-benzyl)-2,8-diazaspiro[4.5]-decane-8-carbonyl)-1H-pyrazole-3-carboxylic acid]
< 0.1 µM | NC(=O)c1ccn(C(=O)N2CC3CN(Cc4ccc(C5(O)CCOCC5)cc4C(F)(F)F)CC3C2)n1 (centres unmarked) [Example 396, 1-(5-(4-(4-hydroxytetrahydro-2H-pymn-4-yl)-2-(trifluoromethyl)-benzyl)-octahydropyrrolo-[3,4-c]pyrrole-2-carbonyl)-1H-pyrazole-3-carboxamide]
< 0.1 µM | CN(Cc1ccc(C(F)(F)F)cc1N1CCCCC1)C1(C)CCN(C(=O)n2ccc(C(=O)O)n2)CC1 [Example 397, 1-(4-methyl-4-(methyl(2-(piperidin-1-yl)-4-(trifluoromethyl)-benzyl)amino)-piperidine-1-carbonyl)-1H-pyrazole-3-carboxylic acid]
< 0.1 µM | NC(=O)c1ccn(C(=O)N2CCC3(CCN(Cc4cc(Cl)ccc4Cl)C3)C2)n1 (centres unmarked) [Example 426, 1-(7-(2,5-dichlorobenzyl)-2,7-diazaspiro[4.4-]-nonane-2-carbonyl)-1H-pyrazole-3-carboxamide]
< 0.1 µM | CNC(=O)c1ccn(C(=O)N2CCC3(CCN(Cc4cc(Cl)ccc4Cl)C3)C2)n1 (centres unmarked) [Example 428, 1-(7-(2,5-dichlorobenzyl)-2,7-diazaspiro[4.4]-nonane-2-carbonyl)-N-methyl-1H-pyrazole-3-carboxamide]
< 0.1 µM | NC(=O)c1ccn(C(=O)N2CCC3(CCN(Cc4cccc(C(F)(F)F)c4)C3)C2)n1 (centres unmarked) [Example 429, 1-(7-(3-(trifluoromethyl)-benzyl)-2,7-diazaspiro[4.4]-nonane-2-carbonyl)-1H-pyrazole-3-carboxamide]
< 0.1 µM | CNC(=O)c1ccn(C(=O)N2CC3CN(Cc4cccc(C(F)(F)F)c4)CC3C2)n1 (centres unmarked) [Example 432, N-methyl-1-(5-(3-(trifluoromethyl)-benzyl)-octahydropyrrolo-[3,4-c]pyrrole-2-carbonyl)-1H-pyrazole-3-carboxamide]

From patent publication US10927105B1 (Lundbeck La Jolla Research Center, Inc., priority 2017, dated 2021)
